According to ChEMBL document CHEMBL3045164, “Combination of flavopiridol and embelin effectively inhibit cell growth in hepatocellular carcinoma depending on regulatory relationship between CDK6 and XIAP” (Med Chem Res, 2012):
Active and inactive are the calls of the source. The calls are words filed in the database; no cut-off is given here.

What was measured:
[1] = species on record: Homo sapiens; assay: Cytotoxicity against Homo sapiens (human) HepG2(2.2.1) cells assessed as growth inhibition at 10 uM after 24 to 72 hr by WST-8 assay; assay type: functional, cell-based
[2] = species on record: Homo sapiens; assay: Cytotoxicity against Homo sapiens (human) HepG2(2.2.1) cells assessed as growth inhibition at 20 uM after 24 to 72 hr by WST-8 assay; assay type: functional, cell-based
[3] = species on record: Homo sapiens; assay: Cytotoxicity against Homo sapiens (human) HepG2(2.2.1) cells assessed as growth inhibition at 15 uM after 24 to 72 hr by WST-8 assay; assay type: functional, cell-based
[4] = Cell cycle arrest in Homo sapiens (human) HepG2(2.2.1) cells assessed as accumulation at G1 phase at 100 nM after 24 hr by propidium iodide staining-based flow cytometric analysis (reference value: 53.07 +/- 3.01 %); assay type: functional
[5] = Downregulation of CDK6 expression in Homo sapiens (human) HepG2(2.2.1) cells at 500 nM after 24 hr by Western blot analysis; assay type: functional
[6] = species on record: Homo sapiens; assay: Cytotoxicity against Homo sapiens (human) HepG2(2.2.1) cells assessed as growth inhibition at 75 nM after 24 to 72 hr by WST-8 assay in presence of 15 uM XIAP inhibitor embelin; assay type: functional, cell-based
[7] = target: Cyclin-dependent kinase 4 (Homo sapiens) (UniProt P11802); assay: Inhibition of CDK4 in Homo sapiens (human) HepG2(2.2.1) cells assessed as downregulation of XIAP expression at 500 nM after 24 hr by Western blot analysis
[8] = (§1) Cytotoxicity against Homo sapiens (human) HepG2(2.2.1) cells assessed as growth inhibition after 24 to 72 hr by WST-8 assay; assay type: functional, cell-based
[9] = species on record: Homo sapiens; assay: as §1; assay type: functional, cell-based
[10] = Downregulation of CDK2 expression in Homo sapiens (human) HepG2(2.2.1) cells at 500 nM after 24 hr by Western blot analysis; assay type: functional
[11] = species on record: Homo sapiens; assay: Cytotoxicity against Homo sapiens (human) HepG2(2.2.1) cells assessed as growth inhibition at 100 nM after 24 to 72 hr by WST-8 assay; assay type: functional, cell-based
[12] = Cell cycle arrest in Homo sapiens (human) HepG2(2.2.1) cells assessed as accumulation at G1 phase at 300 nM after 24 hr by propidium iodide staining-based flow cytometric analysis (reference value: 53.07 +/- 3.01 %); assay type: functional
[13] = species on record: Homo sapiens; assay: Cytotoxicity against Homo sapiens (human) HepG2(2.2.1) cells assessed as growth inhibition at 50 nM after 24 to 72 hr by WST-8 assay in presence of 10 uM XIAP inhibitor embelin; assay type: functional, cell-based
[14] = species on record: Homo sapiens; assay: Cytotoxicity against Homo sapiens (human) HepG2(2.2.1) cells assessed as growth inhibition at 100 nM after 24 to 72 hr by WST-8 assay in presence of 75 uM XIAP inhibitor embelin; assay type: functional, cell-based
[15] = target: G1/S-specific cyclin-D1 (Homo sapiens) (UniProt P24385); assay: Inhibition of cyclin D1 in Homo sapiens (human) HepG2(2.2.1) cells assessed as downregulation of XIAP expression at 500 nM after 24 hr by Western blot analysis
[16] = species on record: Homo sapiens; assay: Cytotoxicity against Homo sapiens (human) HepG2(2.2.1) cells assessed as growth inhibition at 50 nM after 24 to 72 hr by WST-8 assay; assay type: functional, cell-based
[17] = Downregulation of XIAP expression in Homo sapiens (human) HepG2(2.2.1) cells after 24 hr by Western blot analysis; assay type: functional
[18] = Cell cycle arrest in Homo sapiens (human) HepG2(2.2.1) cells assessed as accumulation at S phase at 300 nM after 24 hr by propidium iodide staining-based flow cytometric analysis (reference value: 22.55 +/- 2.98 %); assay type: functional
[19] = Cell cycle arrest in Homo sapiens (human) HepG2(2.2.1) cells assessed as accumulation at G2 phase at 500 nM after 24 hr by propidium iodide staining-based flow cytometric analysis (reference value: 24.38 +/- 2.02 %); assay type: functional
[20] = Induction of apoptosis in Homo sapiens (human) HepG2(2.2.1) cells at 500 nM after 24 hr by annexin V-FITC/propidium iodide staining-based flow cytometric analysis (reference value: 2.20%); assay type: functional
[21] = Cell cycle arrest in Homo sapiens (human) HepG2(2.2.1) cells assessed as accumulation at G2 phase at 100 nM after 24 hr by propidium iodide staining-based flow cytometric analysis (reference value: 24.38 +/- 2.02 %); assay type: functional
[22] = Cell cycle arrest in Homo sapiens (human) HepG2(2.2.1) cells assessed as accumulation at S phase at 100 nM after 24 hr by propidium iodide staining-based flow cytometric analysis (reference value: 22.55 +/- 2.98 %); assay type: functional
[23] = Cell cycle arrest in Homo sapiens (human) HepG2(2.2.1) cells assessed as accumulation at G2 phase at 300 nM after 24 hr by propidium iodide staining-based flow cytometric analysis (reference value: 24.38 +/- 2.02 %); assay type: functional
[24] = target: Cyclin-dependent kinase 6 (Homo sapiens) (UniProt Q00534); assay: Inhibition of CDK6 in Homo sapiens (human) HepG2(2.2.1) cells assessed as downregulation of XIAP expression at 500 nM after 24 hr by Western blot analysis
[25] = species on record: Homo sapiens; assay: Cytotoxicity against Homo sapiens (human) HepG2(2.2.1) cells assessed as growth inhibition at 75 nM after 24 to 72 hr by WST-8 assay; assay type: functional, cell-based
[26] = Downregulation of cyclin D1 expression in Homo sapiens (human) HepG2(2.2.1) cells at 500 nM after 24 hr by Western blot analysis; assay type: functional
[27] = Cell cycle arrest in Homo sapiens (human) HepG2(2.2.1) cells assessed as accumulation at G1 phase at 500 nM after 24 hr by propidium iodide staining-based flow cytometric analysis (reference value: 53.07 +/- 3.01 %); assay type: functional
[28] = Downregulation of XIAP expression in Homo sapiens (human) HepG2(2.2.1) cells at 500 nM after 24 hr by Western blot analysis; assay type: functional
[29] = Downregulation of CDK4 expression in Homo sapiens (human) HepG2(2.2.1) cells at 500 nM after 24 hr by Western blot analysis; assay type: functional
[30] = Downregulation of CDK1 expression in Homo sapiens (human) HepG2(2.2.1) cells at 500 nM after 24 hr by Western blot analysis; assay type: functional
[31] = Cell cycle arrest in Homo sapiens (human) HepG2(2.2.1) cells assessed as accumulation at S phase at 500 nM after 24 hr by propidium iodide staining-based flow cytometric analysis (reference value: 22.55 +/- 2.98 %); assay type: functional

Chain of Cyclin-dependent kinase 4 (Homo sapiens) (P11802 whole entry): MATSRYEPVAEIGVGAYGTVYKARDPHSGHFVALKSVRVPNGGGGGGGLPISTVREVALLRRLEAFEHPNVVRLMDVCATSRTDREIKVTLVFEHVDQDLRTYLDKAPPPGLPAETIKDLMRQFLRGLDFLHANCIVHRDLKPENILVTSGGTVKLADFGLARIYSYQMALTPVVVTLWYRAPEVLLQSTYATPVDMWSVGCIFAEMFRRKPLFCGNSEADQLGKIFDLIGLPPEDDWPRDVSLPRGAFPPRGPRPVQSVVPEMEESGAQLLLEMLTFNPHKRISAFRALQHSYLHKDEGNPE
Chain of Cyclin-dependent kinase 6 (Homo sapiens) (Q00534 whole entry): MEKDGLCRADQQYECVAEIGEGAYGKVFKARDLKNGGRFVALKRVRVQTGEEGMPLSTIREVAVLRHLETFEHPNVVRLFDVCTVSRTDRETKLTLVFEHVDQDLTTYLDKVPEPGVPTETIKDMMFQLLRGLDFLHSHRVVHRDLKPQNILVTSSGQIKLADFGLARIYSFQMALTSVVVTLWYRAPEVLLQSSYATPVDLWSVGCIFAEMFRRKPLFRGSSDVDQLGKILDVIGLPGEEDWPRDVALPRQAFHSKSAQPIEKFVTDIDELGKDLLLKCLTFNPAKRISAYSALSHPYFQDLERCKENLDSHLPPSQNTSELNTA
Chain of G1/S-specific cyclin-D1 (Homo sapiens) (P24385 whole entry): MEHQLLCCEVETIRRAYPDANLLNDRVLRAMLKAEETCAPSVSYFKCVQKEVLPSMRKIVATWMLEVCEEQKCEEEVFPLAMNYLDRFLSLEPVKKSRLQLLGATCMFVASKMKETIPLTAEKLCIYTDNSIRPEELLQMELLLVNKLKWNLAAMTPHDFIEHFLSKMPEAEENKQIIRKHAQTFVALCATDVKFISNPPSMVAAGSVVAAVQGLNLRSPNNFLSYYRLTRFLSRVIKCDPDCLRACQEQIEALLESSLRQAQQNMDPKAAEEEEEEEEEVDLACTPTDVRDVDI

In the case of `CCCCCCCCCCCC1=C(O)C(=O)C=C(O)C1=O`, the “growth inhibition (GI)” value [1] is reported as “Active”, the “growth inhibition (GI)” value [2] is reported as “Active” and the “growth inhibition (GI)” value [3] is reported as “Active”.
With `CN1CC[C@H](c2c(O)cc(O)c3c(=O)cc(-c4ccccc4Cl)oc23)[C@H](O)C1` [ALVOCIDIB] the Activity [4] was 54.6%, the Activity [5] was “Active” and the “growth inhibition (GI)” value [6] was “Active”. The inhibition [7] was “Active”, the IC50 [8] was 200 nM and the “growth inhibition (GI)” value [9] was “Dose-dependent effect”. The Activity [10] was “inactive”, the “growth inhibition (GI)” value [11] was “Active” and the Activity [12] was 56.4%. The “growth inhibition (GI)” value [13] was “Active”, the “growth inhibition (GI)” value [14] was “Active” and the inhibition [15] was “Active”. The “growth inhibition (GI)” value [16] was “Active”, the Activity [17] was “Dose-dependent effect” and the Activity [18] was 27.9%. The Activity [19] was 20.9%, the Activity [20] was 14.28% and the Activity [21] was 23.2%. The Activity [22] was 22.2%, the Activity [23] was 15.7% and the inhibition [24] was “Active”. For the same compound, the “growth inhibition (GI)” value [25] was “Active”, the Activity [26] was “Active” and the Activity [27] was 57.9%. For the same compound, the Activity [28] was “Active”, the Activity [29] was “Active” and the Activity [30] was “inactive”. The Activity [31] was 21.2%.
